Data on 2 compounds can be found in patent publication US5425942A, “Polyfunctinal protease” (Otsuka Pharamceutical Co., Ltd., priority 1988, dated 1995).

Where “and” joins values, the source holds several entries; their conditions need not be identical. Equal values may be shown once. Read-outs that look alike come from different tables or passages of the source.

This assay addresses T1, human proteasome (Homo sapiens, UniProt P28072+P28074+Q99436).
T1 construct: The desired homogeneous human proteasome was thus recovered in the fraction at about 340 mM KCl; from tissue
Nature of the assay: Activity inhibition of human proteasome by protease inhibitors. In kind it is biochemical.

Broadly, the inhibition is the drop in the measured response relative to a control, in per cent. Take `CCN1C(=O)C=CC1=O` [C, N-ethylmaleimide]: the “Inhibition Rate (%) by Inhibitor” value is 96% and 99%. The inhibition at 10000 µM (read-out: Inhibition Rate (%) by Inhibitor) worked out at 88%.
For Chymostatin [B], the “Inhibition Rate (%) by Inhibitor” value (substrate Cbz-Ala-Arg-Arg-MNA, inhibitor 50 μg/ml, 2 μg proteasome, room temperature, one hour, optimal pH) was determined as 19%; the “Inhibition Rate (%) by Inhibitor” value (substrate Cbz-Leu-Leu-Glu-NA, inhibitor 50 μg/ml, 2 μg proteasome, room temperature, one hour, optimal pH) came out at 0%; the “Inhibition Rate (%) by Inhibitor” value (substrate Suc-Leu-Leu-Val-Tyr-MCA, inhibitor 50 μg/ml, 2 μg proteasome, room temperature, one hour, optimal pH) is 75%.
